ChEMBL document CHEMBL4350965 (J Med Chem, 2019)

Legend:
PI3K p110 beta/p85 alpha [1] = target: T1, PI3K p110 beta/p85 alpha (Homo sapiens, UniProt P42338); experiment: Inhibition of N-terminal His6-tagged recombinant full length human p110beta/untagged recombinant full length human p85alpha expressed in baculovirus infected Sf21 insect cells at 1 uM using PIP2 as substrate measured after 80 mins by transcreener fluorescence polarization assay relative to control
[2] = Stability in rat liver microsomes assessed as parent compound remaining at 1 uM measured after 30 mins in presence of NADPH generating system
[3] = target: T2, Phosphatidylinositol 4,5-bisphosphate 3-kinase catalytic subunit delta isoform (Homo sapiens, UniProt O00329); experiment: Inhibition of PI3Kdelta in human Ramos cells assessed as reduction in antihuman IgM-stimulated AKT phosphorylation at Ser473 residue preincubated for 60 mins followed by antihuman IgM stimulation and measured after 15 mins; format: cell-based
T2 sequence (O00329 whole entry): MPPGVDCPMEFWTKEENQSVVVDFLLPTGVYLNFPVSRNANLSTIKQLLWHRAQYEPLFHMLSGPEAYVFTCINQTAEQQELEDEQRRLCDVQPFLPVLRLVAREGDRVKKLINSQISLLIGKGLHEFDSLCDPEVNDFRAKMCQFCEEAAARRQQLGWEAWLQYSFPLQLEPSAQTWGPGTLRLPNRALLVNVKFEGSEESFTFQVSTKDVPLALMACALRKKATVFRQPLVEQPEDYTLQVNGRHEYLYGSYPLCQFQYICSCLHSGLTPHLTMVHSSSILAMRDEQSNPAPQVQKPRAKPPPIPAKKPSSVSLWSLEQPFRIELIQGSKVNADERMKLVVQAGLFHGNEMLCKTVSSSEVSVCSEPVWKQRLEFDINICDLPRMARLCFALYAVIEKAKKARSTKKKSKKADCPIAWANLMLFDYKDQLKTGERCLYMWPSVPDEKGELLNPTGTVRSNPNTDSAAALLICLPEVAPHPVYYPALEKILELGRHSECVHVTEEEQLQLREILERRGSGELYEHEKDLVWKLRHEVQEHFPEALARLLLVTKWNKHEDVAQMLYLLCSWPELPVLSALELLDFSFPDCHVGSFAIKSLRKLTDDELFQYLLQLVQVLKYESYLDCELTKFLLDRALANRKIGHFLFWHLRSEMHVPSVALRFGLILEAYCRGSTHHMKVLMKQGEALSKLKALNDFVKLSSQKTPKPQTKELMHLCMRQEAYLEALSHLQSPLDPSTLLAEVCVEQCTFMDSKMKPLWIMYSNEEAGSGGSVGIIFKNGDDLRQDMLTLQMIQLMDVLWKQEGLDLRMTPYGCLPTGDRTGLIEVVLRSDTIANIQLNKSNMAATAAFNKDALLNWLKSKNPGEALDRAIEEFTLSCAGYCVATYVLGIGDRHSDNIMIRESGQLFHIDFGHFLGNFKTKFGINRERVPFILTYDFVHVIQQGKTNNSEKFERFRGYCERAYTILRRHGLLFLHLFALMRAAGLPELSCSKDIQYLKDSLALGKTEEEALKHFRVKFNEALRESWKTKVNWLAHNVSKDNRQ

[4] = Stability in human liver microsomes assessed as parent compound remaining at 1 uM measured after 30 mins in presence of NADPH generating system
[5] = Inhibition of PI3Kgamma in […] RAW264.7 cells assessed as reduction in C5a-stimulated AKT phosphorylation at Ser473 residue preincubated for 30 mins followed by C5a-stimulation and measured after 5 mins; format: cell-based
[6] = AUC in Beagle dog at 5 mg/kg, po by LC-MS/MS analysis; format: ADME, organism-based, Canis lupus familiaris; conditions: in vivo
[7] = Oral bioavailability in Beagle dog at 5 mg/kg by LC-MS/MS analysis; format: ADME, organism-based, Canis lupus familiaris; conditions: in vivo
[8] = Oral bioavailability in Sprague-Dawley rat at 10 mg/kg by LC-MS/MS analysis; format: ADME, organism-based; conditions: in vivo
[9] = target: PI3-kinase p110-delta/p85-alpha (Homo sapiens, UniProt O00329); experiment: biochemical
Chain of PI3-kinase p110-delta/p85-alpha (P27986 whole entry, one chain of several): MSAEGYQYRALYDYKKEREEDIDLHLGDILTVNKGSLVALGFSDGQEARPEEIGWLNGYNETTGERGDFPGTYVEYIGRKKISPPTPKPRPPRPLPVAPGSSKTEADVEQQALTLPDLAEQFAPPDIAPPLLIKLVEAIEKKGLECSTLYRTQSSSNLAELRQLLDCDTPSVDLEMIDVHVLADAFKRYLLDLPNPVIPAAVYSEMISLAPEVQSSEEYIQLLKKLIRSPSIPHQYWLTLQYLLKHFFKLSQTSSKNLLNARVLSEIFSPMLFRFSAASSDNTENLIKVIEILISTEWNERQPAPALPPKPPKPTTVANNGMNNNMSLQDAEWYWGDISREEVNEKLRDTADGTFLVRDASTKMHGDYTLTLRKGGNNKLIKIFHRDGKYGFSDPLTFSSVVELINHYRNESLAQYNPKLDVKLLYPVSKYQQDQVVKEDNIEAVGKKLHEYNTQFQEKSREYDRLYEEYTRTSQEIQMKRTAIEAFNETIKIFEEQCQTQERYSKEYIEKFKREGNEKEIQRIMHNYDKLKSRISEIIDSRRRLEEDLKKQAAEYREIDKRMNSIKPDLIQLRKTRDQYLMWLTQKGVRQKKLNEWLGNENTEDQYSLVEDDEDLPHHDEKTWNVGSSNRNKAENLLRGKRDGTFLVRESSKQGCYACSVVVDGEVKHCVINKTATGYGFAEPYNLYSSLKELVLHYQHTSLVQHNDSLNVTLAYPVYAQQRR
Description: Inhibition of N-terminal His6-tagged recombinant full length human p110delta/untagged recombinant full length human p85alpha expressed in baculovirus infected Sf21 insect cells using PIP2 as substrate measured after 80 mins by transcreener fluorescence polarization assay

[10] = Half life in Beagle dog at 1 mg/kg, iv by LC-MS/MS analysis; format: ADME, organism-based, Canis lupus familiaris; conditions: in vivo
[11] = Inhibition of PI3Kdelta in rat whole blood assessed as reduction in anti-IgD-stimulated CD86 expression on B-cells preincubated for 60 mins followed by anti-IgD stimulation and measured after overnight incubation by flow cytometry; format: tissue-based
[12] = AUC in Beagle dog at 1 mg/kg, iv by LC-MS/MS analysis; format: ADME, organism-based, Canis lupus familiaris; conditions: in vivo
[13] = Clearance in Sprague-Dawley rat at 2.5 mg/kg, iv by LC-MS/MS analysis; format: ADME, organism-based; conditions: in vivo
[14] = Cmax in Beagle dog at 5 mg/kg, po by LC-MS/MS analysis; format: ADME, organism-based, Canis lupus familiaris; parameters: dose 5 mg/kg, route oral; conditions: in vivo
[15] = target: T2, Phosphatidylinositol 4,5-bisphosphate 3-kinase catalytic subunit delta isoform; experiment: Inhibition of PI3Kdelta in human whole blood assessed as reduction in anti-IgM-stimulated CD69 expression on B-cells preincubated for 60 mins followed by anti-IgM stimulation and measured after overnight incubation by flow cytometry; format: tissue-based
[16] = AUC in Sprague-Dawley rat at 2.5 mg/kg, iv by LC-MS/MS analysis; format: ADME, organism-based; conditions: in vivo
Rattus norvegicus [17] = experiment: Inhibition of KC/GRO-induced neutrophil migration in Wistar rat air pouch model at 10 mg/kg, po pretreated for 0.5 hrs followed by KC/GRO-stimulation and measured after 4 hrs by flow cytometry relative to control; format: functional
Rattus norvegicus [18] = experiment: Antiarthritic activity in po dosed type2 collagen-induced Wistar rat arthritis model assessed as reduction in hind paw volume administered twice daily for 7 days and measured daily during compound dosing by plethysmometry; format: functional; conditions: 168 h
[19] = Cmax in Sprague-Dawley rat at 10 mg/kg, po by LC-MS/MS analysis; format: ADME, organism-based; parameters: dose 10 mg/kg, route oral; conditions: in vivo
PI3K p110 beta/p85 alpha [20] = target: T1, PI3K p110 beta/p85 alpha; experiment: Inhibition of N-terminal His6-tagged recombinant full length human p110beta/untagged recombinant full length human p85alpha expressed in baculovirus infected Sf21 insect cells using PIP2 as substrate measured after 80 mins by transcreener fluorescence polarization assay
[21] = AUC in Sprague-Dawley rat at 10 mg/kg, po by LC-MS/MS analysis; format: ADME, organism-based; conditions: in vivo
[22] = Half life in Sprague-Dawley rat at 2.5 mg/kg, iv by LC-MS/MS analysis; format: ADME, organism-based; conditions: in vivo
[23] = Clearance in Beagle dog at 1 mg/kg, iv by LC-MS/MS analysis; format: ADME, organism-based, Canis lupus familiaris; conditions: in vivo
[24] = target: T2, Phosphatidylinositol 4,5-bisphosphate 3-kinase catalytic subunit delta isoform; experiment: Inhibition of PI3Kdelta in human whole blood assessed as reduction in fMLP-stimulated CD63 expression in basophils preincubated for 30 mins followed by fMLP stimulation; format: tissue-based
[25] = Volume of distribution at steady state in Beagle dog at 1 mg/kg, iv by LC-MS/MS analysis; format: ADME, organism-based, Canis lupus familiaris; conditions: in vivo, read-out: Vdss
Rattus norvegicus [26] = experiment: Ex vivo inhibition of anti-IgD-induced B cell activation in Wistar rat assessed as CD86 expression at 1 mg/kg, po pretreated for 2 hrs followed by anti-IgD stimulation and measured after overnight incubation by flow cytometry relative to control; format: functional
[27] = Drug metabolism in human liver microsomes assessed as oxidation of pyrrolidine linker at 1 uM measured after 30 mins in presence of NADPH-generating system; format: ADME, Microsome; conditions: 0.5 h
[28] = test system: liver microsomes (Homo sapiens / Mus musculus); experiment: Drug metabolism in human and mouse liver microsomes assessed as oxidation of pyrrolidine linker at 1 uM measured after 30 mins in presence of NADPH-generating system; conditions: 0.5 h
[29] = target: Phosphatidylinositol 4,5-bisphosphate 3-kinase catalytic subunit gamma isoform (Homo sapiens, UniProt P48736)
Chain of Phosphatidylinositol 4,5-bisphosphate 3-kinase catalytic subunit gamma isoform (P48736 whole entry, canonical isoform): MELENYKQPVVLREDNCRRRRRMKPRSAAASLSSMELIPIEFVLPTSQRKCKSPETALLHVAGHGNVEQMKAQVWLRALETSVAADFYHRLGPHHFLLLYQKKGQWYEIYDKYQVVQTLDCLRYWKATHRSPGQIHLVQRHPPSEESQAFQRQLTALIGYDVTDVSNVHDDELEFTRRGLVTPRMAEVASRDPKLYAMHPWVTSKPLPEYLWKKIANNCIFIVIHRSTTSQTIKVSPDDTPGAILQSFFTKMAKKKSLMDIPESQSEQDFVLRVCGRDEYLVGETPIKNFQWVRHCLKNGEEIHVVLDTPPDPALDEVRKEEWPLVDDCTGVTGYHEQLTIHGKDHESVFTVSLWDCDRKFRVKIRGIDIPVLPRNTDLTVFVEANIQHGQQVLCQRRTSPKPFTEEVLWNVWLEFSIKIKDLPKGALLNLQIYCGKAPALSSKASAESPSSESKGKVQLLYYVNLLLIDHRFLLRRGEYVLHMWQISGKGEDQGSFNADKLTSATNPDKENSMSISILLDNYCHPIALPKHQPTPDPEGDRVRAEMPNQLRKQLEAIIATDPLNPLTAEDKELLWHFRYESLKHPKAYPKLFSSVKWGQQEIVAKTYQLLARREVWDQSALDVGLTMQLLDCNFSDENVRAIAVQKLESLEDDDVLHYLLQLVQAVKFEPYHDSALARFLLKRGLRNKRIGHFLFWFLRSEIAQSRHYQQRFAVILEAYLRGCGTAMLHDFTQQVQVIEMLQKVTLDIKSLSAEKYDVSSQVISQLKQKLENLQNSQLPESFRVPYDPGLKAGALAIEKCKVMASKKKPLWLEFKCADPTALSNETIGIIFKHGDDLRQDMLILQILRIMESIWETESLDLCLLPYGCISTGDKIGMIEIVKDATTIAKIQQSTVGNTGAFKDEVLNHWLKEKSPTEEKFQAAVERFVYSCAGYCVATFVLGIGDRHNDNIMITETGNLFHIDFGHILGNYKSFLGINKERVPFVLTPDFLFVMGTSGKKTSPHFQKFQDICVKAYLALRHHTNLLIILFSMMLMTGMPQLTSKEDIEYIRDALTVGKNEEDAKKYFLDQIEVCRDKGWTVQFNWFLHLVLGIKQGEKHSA
Description: Inhibition of recombinant human full-length His-tagged PI3K p110gamma expressed in baculovirus expression system using PIP2 as substrate measured after 80 mins by transcreener fluorescence polarization assay

T1 sequence (P27986 whole entry): as the sequence (P27986 whole entry, one chain of several) above
T1 sequence (P42338 whole entry): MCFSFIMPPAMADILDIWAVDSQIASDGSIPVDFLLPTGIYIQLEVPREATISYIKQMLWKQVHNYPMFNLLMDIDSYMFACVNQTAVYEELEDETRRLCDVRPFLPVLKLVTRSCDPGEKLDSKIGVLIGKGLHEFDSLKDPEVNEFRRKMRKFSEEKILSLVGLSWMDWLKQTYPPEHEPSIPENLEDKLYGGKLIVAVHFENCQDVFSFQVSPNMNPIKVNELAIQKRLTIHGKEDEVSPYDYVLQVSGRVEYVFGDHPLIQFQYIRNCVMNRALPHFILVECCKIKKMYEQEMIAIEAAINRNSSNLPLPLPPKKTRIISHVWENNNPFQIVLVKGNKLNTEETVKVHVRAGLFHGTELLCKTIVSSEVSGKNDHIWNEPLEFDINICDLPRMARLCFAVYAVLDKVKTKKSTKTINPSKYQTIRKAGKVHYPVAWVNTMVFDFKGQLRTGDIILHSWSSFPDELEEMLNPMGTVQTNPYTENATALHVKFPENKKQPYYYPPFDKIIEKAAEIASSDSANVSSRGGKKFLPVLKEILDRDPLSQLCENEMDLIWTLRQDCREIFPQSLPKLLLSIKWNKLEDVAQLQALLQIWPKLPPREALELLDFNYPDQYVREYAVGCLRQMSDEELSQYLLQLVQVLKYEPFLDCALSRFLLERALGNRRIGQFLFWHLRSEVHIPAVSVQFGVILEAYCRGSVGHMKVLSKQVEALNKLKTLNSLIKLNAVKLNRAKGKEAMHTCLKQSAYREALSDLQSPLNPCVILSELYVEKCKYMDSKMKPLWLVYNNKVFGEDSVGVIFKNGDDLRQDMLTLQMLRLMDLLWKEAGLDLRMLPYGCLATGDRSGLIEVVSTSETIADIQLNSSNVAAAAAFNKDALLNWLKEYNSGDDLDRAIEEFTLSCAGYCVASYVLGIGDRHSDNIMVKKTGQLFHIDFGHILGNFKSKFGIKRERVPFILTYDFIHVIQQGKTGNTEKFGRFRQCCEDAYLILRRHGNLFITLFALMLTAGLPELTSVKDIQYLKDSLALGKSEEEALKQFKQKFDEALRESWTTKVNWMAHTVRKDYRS

Work on `O=c1c2c(F)ccn2nc([C@@H]2CCCN2c2ncnc3[nH]cnc23)n1-c1ccccc1` yielded an inhibition at 1 µM (PI3K p110 beta/p85 alpha [1]) of 52.9% and a remaining at 0.5 h, 1 µM [2] of 51.8%.
Work on `CC(=O)c1c[nH]c2ncnc(N3CCC[C@H]3c3nn4ccc(Cl)c4c(=O)n3-c3cccc(F)c3)c12` yielded an IC50 [3] of 3 nM, a remaining at 0.5 h, 1 µM [4] of 11.7% and an IC50 [5] of 7 nM.
`CC(=O)c1cnc(N)nc1N1CC[C@H]1c1nn2ccc(Cl)c2c(=O)n1-c1ccccc1` showed an AUC [6] of 13100 ng·h/mL, a bioavailability [7] of 82.4% and a bioavailability [8] of 108%. It also gave an IC50 [9] of 5 nM, a half-life [10] of 6.3 h and an IC50 [11] of 44 nM. The AUC [12] was 3260 ng·h/mL, the clearance [13] was 12.7 mL/min/kg and the Cmax [14] was 2530 ng/mL. The IC50 [15] was 63 nM, the AUC [16] was 3270 ng·h/mL and the inhibition in vivo at 10 mg/kg (Rattus norvegicus [17]) was 87.9%. It also gave an ED50 (Rattus norvegicus [18]) of 0.25 mg/kg, a Cmax [19] of 2730 ng/mL and an IC50 (PI3K p110 beta/p85 alpha [20]) of 590 nM. The AUC [21] was 14300 ng·h/mL, the half-life [22] was 1.5 h and the clearance [23] was 5.4 mL/min/kg. The IC50 [24] was 337 nM, the Vd [25] was 1.7 L/kg and the inhibition in vivo at 1 mg/kg (Rattus norvegicus [26]) was 88.3%.
In the case of `CC(=O)c1c[nH]c2ncnc(N3CCC[C@H]3c3nn4ccc(F)c4c(=O)n3-c3ccccc3)c12`, the IC50 [3] is reported as 5 nM, the remaining at 0.5 h, 1 µM [4] is reported as 25.1% and the IC50 [5] is reported as 42 nM. The remaining at 0.5 h, 1 µM [2] was 26.1%.
With `O=c1c2c(Cl)ccn2nc([C@@H]2C[C@H](F)CN2c2ncnc3[nH]cnc23)n1-c1ccccc1` the IC50 [3] was 1 nM, the IC50 [5] was 20 nM and the remaining at 0.5 h, 1 µM [2] was 43.8%.
For `Nc1ncc(C(=O)C(F)(F)F)c(N2CC[C@H]2c2nn3ccc(Cl)c3c(=O)n2-c2ccccc2)n1`, the IC50 (PI3K p110 beta/p85 alpha [20]) was > 1000 nM.
With `C#Cc1cnc(N)nc1N1CC[C@H]1c1nn2ccc(Cl)c2c(=O)n1-c1ccccc1` the inhibition at 1 µM (PI3K p110 beta/p85 alpha [1]) was 22.7%.
In the case of `N#Cc1cnc(N)nc1N1CCC[C@H]1c1nn2ccc(Cl)c2c(=O)n1-c1ccccc1`, the IC50 [3] is reported as 3 nM, the IC50 [5] is reported as 22 nM and the remaining at 0.5 h, 1 µM [2] is reported as 23.5%.
`CC(=O)c1c[nH]c2ncnc(N3CCC[C@H]3c3nn4ccc(Cl)c4c(=O)n3-c3ccccc3)c12` showed a remaining at 0.5 h, 1 µM [4] of 17.9% and a remaining at 0.5 h, 1 µM [2] of 41.4%.
`CC[C@H](Nc1ncnc2[nH]cnc12)c1nc2cccc(F)c2c(=O)n1-c1ccccc1` [IDELALISIB] gave an IC50 [5] of 337 nM.
Work on `N#Cc1c[nH]c2ncnc(N3CCC[C@H]3c3nn4cccc4c(=O)n3-c3ccccc3)c12` yielded an IC50 [3] of 3 nM, an inhibition at 1 µM (PI3K p110 beta/p85 alpha [1]) of 47.7% and a remaining at 0.5 h, 1 µM [4] of 2.8%. The Drug metabolism [27] was “Metabolite_Detected”, the Drug metabolism [28] was “Metabolite_Detected” and the IC50 [5] was 40 nM. It also gave an IC50 [29] of 19 nM and a remaining at 0.5 h, 1 µM [2] of 19.1%.
